{"source": "patent US20040009233A1", "about": "“Shark meat extract” (priority 2000, published 2004)", "tested_on": "Angiogenesis", "test": "Inhibition of angiogenesis by fatty acid samples", "type": "cell-based", "description": "The phospholipid fatty acids usually include docosahexaenoic acid (DHA), arachidonic acid (AA), eicosapentaenoic acid (EPA), and others.", "data": [{"smiles": "CC/C=C\\C/C=C\\C/C=C\\C/C=C\\C/C=C\\CCCCCC(=O)O", "note": "[Docosapentaenoic]", "values": [{"measurement": "Inhibition of Angiogenesis", "setting": "sample concentration 4 μg/ml", "result": 71, "unit": "%"}]}, {"smiles": "CCCCCCC=CCCCCCCCCC(=O)O", "note": "[Heptadecenoic]", "values": [{"measurement": "Inhibition of Angiogenesis", "setting": "sample concentration 20 μg/ml", "result": 83, "unit": "%"}]}, {"smiles": "CCCCCCCC/C=C\\CCCCCCCCCCCCCC(=O)O", "note": "[Nervonic]", "values": [{"measurement": "Inhibition of Angiogenesis", "setting": "sample concentration 100 μg/ml", "result": 0, "unit": "%"}]}, {"smiles": "CCCCC/C=C\\C/C=C\\C/C=C\\C/C=C\\CCCC(=O)O", "note": "[Arachidonic, arachidonic acid]", "values": [{"measurement": "inhibition at 5 µg/mL", "setting": "sample concentration 5 μg/ml", "result": 84, "unit": "%"}]}, {"smiles": "CCCCC/C=C\\C/C=C\\CCCCCCCC(=O)O", "note": "[Linoleic]", "values": [{"measurement": "Inhibition of Angiogenesis", "setting": "sample concentration 5 μg/ml", "result": 82, "unit": "%"}]}, {"smiles": "CCCCCC/C=C\\CCCCCCCC(=O)O", "note": "[Palmitoleic]", "values": [{"measurement": "Inhibition of Angiogenesis", "setting": "sample concentration 5 μg/ml", "result": 70, "unit": "%"}]}, {"smiles": "CCCCCCCC/C=C\\CCCCCCCC(=O)O", "note": "[Oleic, oleic acid]", "values": [{"measurement": "inhibition at 100 µg/mL", "setting": "read-out: Inhibition of Angiogenesis", "result": 0, "unit": "%"}]}, {"smiles": "CCCCCCCCCCC/C=C\\CCCCC(=O)O", "note": "[Petroselenic]", "values": [{"measurement": "Inhibition of Angiogenesis", "setting": "sample concentration 100 μg/ml", "result": 58, "unit": "%"}]}, {"smiles": "CC/C=C\\C/C=C\\C/C=C\\CCCCCCCC(=O)O", "note": "[α-Linolenic]", "values": [{"measurement": "Inhibition of Angiogenesis", "setting": "sample concentration 20 μg/ml", "result": 66, "unit": "%"}]}, {"smiles": "CCCC/C=C\\CCCCCCCC(=O)O", "note": "[Myristoleic]", "values": [{"measurement": "Inhibition of Angiogenesis", "setting": "sample concentration 10 μg/ml", "result": 58, "unit": "%"}]}, {"smiles": "CCCCCCCC/C=C\\CCCCCCCCCCCC(=O)O", "note": "[Erucic]", "values": [{"measurement": "Inhibition of Angiogenesis", "setting": "sample concentration 200 μg/ml", "result": 30, "unit": "%"}]}, {"smiles": "CC/C=C\\C/C=C\\C/C=C\\C/C=C\\C/C=C\\CCCC(=O)O", "note": "[Eicosapentaenoic (EPA), eicosapentaenoic acid]", "values": [{"measurement": "inhibition at 3 µg/mL", "setting": "sample concentration 3 μg/ml", "result": 100, "unit": "%"}]}, {"smiles": "CC/C=C\\C/C=C\\C/C=C\\C/C=C\\C/C=C\\C/C=C\\CCC(=O)O", "note": "[Docosahexaenoic (DHA), docosahexaenoic acid]", "values": [{"measurement": "inhibition at 5 µg/mL", "setting": "sample concentration 5 μg/ml", "result": 88, "unit": "%"}]}]}
